# From patent US8183262B2, “Pyridine derivatives as mGluR2 antagonists” (Hoffmann-La Roche Inc., priority 2007, dated 2012)
# Tests used:
# rat mGlu2 receptor = biological target: T1, rat mGlu2 receptor (Rattus norvegicus, UniProt P31421); test: [3H]-LY354740 binding on mGlu2 transfected CHO cell membranes; details: inhibition of 10 nM [3H]-LY354740 binding, membranes of CHO cells transfected with rat mGlu2, room temperature, 1 hour
# T1 construct: expressed in transfected cells; membranes prepared
# Source text: [^3H]-LY354740 Binding on mGlu2 Transfected CHO Cell Membranes. Transfection and Cell Culture
# cDNA encoding the rat mGlu2 receptor protein in pBluescript II was subcloned into the eukaryotic expression vector pcDNA I-amp from Invitrogen Ltd (Paisley, UK). This vector construct (pcD1mGR2) was co-transfected with a psvNeo plasmid encoding the gene for neomycin resistance, into CHO cells by a modified calcium phosphate method described by Chen & Okayama (1988). The cells were maintained in Dulbecco's Modified Eagle medium with reduced L-glutamine (1 mM final concentration), 36 mg/L L-Proline and 10% dialysed foetal calf serum from Gibco-Invitrogen; the medium was supplemented with 500 microM α-methyl-4-carboxyphenylglycine (MCPG). Selection was made in the presence of G-418 (300 ug/ml final concentration). Clones were identified by reverse transcription of 5 μg total RNA, followed by PCR using mGlu2 receptor specific primers 5′-[…]-3′ and 5′-[…]-3′ in 60 mM Tris HCl (pH 10), 15 mM (NH4)2SO4, 2 mM MgCl2, 25 units/ml Taq Polymerase with 30 cycles annealing at 60° C. for 1 min., extention at 72° C. for 30 s, and 1 min. 95° C. denaturation.
# Cells, cultured as above, were harvested and washed three times with cold PBS and frozen at −80° C. The pellet was resuspended in cold 20 mM HEPES-NaOH buffer containing 10 mM EDTA (pH 7.4), and homogenised with a polytron (Kinematica, A G, Littau, Switzerland) for 10 s at 10 000 rpm. After centrifugation for 30 min. at 4° C., the pellet was washed once with cold 20 mM HEPES-NaOH buffer containing 0.1 mM EDTA, (pH 7.4). After a second centrifugation for 30 min. at 4° C. the pellet was resuspended in cold 20 mM HEPES-NaOH buffer containing 0.1 mM EDTA, (pH 7.4). Protein content was measured using the Micro BCA method from Pierce-Perbio (Rockford, Ill., USA) using bovine serum albumin as standard.
# After thawing, the membranes were resuspended in cold 50 mM Tris-HCl buffer containing 2 mM MgCl2 (pH 7.4) (binding buffer). The final concentration of the membranes in the assays was 25 μg protein/ml. Inhibition experiments were performed with membranes incubated with 10 nM [^3H]-LY354740 at room temperature, for 1 hour, in presence of various concentrations of the compound to be tested. Following the incubations, membranes were filtered onto Whatmann GF/B glass fiber filters or onto GF/B Unifilter plates and washed 5 times with cold binding buffer. Non specific binding was measured in the presence of 10 μM (2S,2′R,3′R)-2-(2′3′-Dicarboxycyclopropyl)glycine (DCG IV from Tocris, Ellisville, Mo. USA). After transfer of the filters into plastic vials containing 10 ml of Ultima-gold scintillation fluid from Perkin-Elmer (Boston, Mass., USA), the radioactivity was measured by liquid scintillation in a Tri-Carb 2500 TR counter (Packard, Zürich, Switzerland). For 96-Unifilter plates the radioactivity was measured after addition of Microscint 40 scintillation fluid (Perkin Elmer, Boston Mass.) using a TopCount NXT (Packard)
# The inhibition curves were fitted with a four parameter logistic equation giving IC50 values, and Hill coefficients.
# T1 sequence (P31421 19-872): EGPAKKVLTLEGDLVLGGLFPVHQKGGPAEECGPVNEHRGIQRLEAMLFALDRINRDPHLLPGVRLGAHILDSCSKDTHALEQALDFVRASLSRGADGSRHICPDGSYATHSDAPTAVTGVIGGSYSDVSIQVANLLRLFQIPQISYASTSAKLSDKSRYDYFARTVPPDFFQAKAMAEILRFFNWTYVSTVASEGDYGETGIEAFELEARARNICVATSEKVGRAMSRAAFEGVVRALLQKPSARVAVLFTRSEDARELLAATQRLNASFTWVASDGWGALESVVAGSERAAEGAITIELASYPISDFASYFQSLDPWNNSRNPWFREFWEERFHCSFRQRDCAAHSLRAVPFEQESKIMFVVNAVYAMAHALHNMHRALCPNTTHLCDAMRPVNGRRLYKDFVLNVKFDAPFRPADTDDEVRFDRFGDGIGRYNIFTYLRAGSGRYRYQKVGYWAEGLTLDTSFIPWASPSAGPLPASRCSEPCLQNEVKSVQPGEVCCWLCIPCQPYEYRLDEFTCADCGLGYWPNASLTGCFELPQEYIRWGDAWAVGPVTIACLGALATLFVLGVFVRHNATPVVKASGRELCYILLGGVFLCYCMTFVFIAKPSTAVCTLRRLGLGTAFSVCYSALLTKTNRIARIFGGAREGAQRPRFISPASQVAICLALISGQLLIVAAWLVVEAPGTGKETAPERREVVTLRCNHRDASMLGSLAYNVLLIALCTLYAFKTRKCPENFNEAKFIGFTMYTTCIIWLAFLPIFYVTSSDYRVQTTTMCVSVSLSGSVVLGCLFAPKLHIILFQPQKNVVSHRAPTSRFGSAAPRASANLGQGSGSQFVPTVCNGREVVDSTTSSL
Compound,Ki (rat mGlu2 receptor) [nM],melting point
"Nc1cc(-c2noc(-c3nc(-c4ccc(Cl)cc4)cc(C(F)(F)F)n3)n2)ccn1 [Example 8, 4-{5-[4-(4-Chloro-phenyl)-6-trifluoromethyl-pyrimidin-2-yl]-[1,2,4]oxadiazol-3-yl}-pyridin-2-ylamine]",100,223.5 °C
"Nc1ccc(-c2noc(-c3nc(-c4ccc(C(F)(F)F)cc4)cc(C(F)(F)F)n3)n2)cn1 [Example 11, 5-{5-[4-Trifluoromethyl-6-(4-trifluoromethyl-phenyl)-pyrimidin-2-yl]-[1,2,4]oxadiazol-3-yl}-pyridin-2-ylamine]",21.6,218.5 °C
"Nc1ccc(-c2cccc(-c3nc(-c4ccc(C(F)(F)F)cc4)cc(C(F)(F)F)n3)c2)cn1 [Example 26, 5-{3-[4-Trifluoromethyl-6-(4-trifluoromethyl-phenyl)-pyrimidin-2-yl]-phenyl}-pyridin-2-ylamine]",14,205 °C
"NS(=O)(=O)c1ccc(-c2noc(-c3nc(-c4ccc(C(F)(F)F)cc4)cc(C(F)F)n3)n2)cc1 [Example 35, 4-{5-[4-Difluoromethyl-6-(4-trifluoromethyl-phenyl)-pyrimidin-2-yl]-[1,2,4]oxadiazol-3-yl}-benzenesulfonamide]",31,307 °C
"FC(F)(F)c1ccc(-c2cc(C(F)(F)F)nc(-c3ccncc3)n2)cc1 [Example 39, 2-Pyridin-4-yl-4-trifluoromethyl-6-(4-trifluoromethyl-phenyl)-pyrimidine]",39.5,153.5 °C
"Cc1cc(-c2ccc(C(F)(F)F)cc2)cc(-n2ccnc2)n1 [Example 55, 2-Imidazol-1-yl-6-methyl-4-(4-trifluoromethyl-phenyl)-pyridine]",96,158 to 160 °C
"Nc1ccc(-c2cn(-c3cc(C(F)(F)F)cc(-c4ccc(Cl)cc4)n3)cn2)cn1 [Example 56, 5-{1-[6-(4-Chloro-phenyl)-4-trifluoromethyl-pyridin-2-yl]-1H-imidazol-4-yl}-pyridin-2-ylamine]",9,196 °C (dec.)
"FC(F)(F)c1ccc(-c2cc(C(F)(F)F)cc(-c3cccc(-c4cccnc4)c3)n2)cc1 [Example 59, 2-(3-Pyridin-3-yl-phenyl)-4-trifluoromethyl-6-(4-trifluoromethyl-phenyl)-pyridine]",58.3,164 to 166 °C
"Cc1cc(-c2ccc(C(F)(F)F)cc2)cc(-c2cccc(-c3ccc(N)nc3)c2)n1 [Example 62, 5-{3-[6-Methyl-4-(4-trifluoromethyl-phenyl)-pyridin-2-yl]-phenyl}-pyridin-2-ylamine]",3,68 to 90 °C
"Nc1ccc(-c2cn(-c3cc(C(F)(F)F)cc(-c4ccc(C(F)(F)F)cc4)n3)cn2)cn1 [Example 65, 5-{1-[4-Trifluoromethyl-6-(4-trifluoromethyl-phenyl)-pyridin-2-yl]-1H-imidazol-4-yl}-pyridin-2-ylamine]",6,245 to 247 °C
"Cc1cc(-c2ccc(C(F)(F)F)cc2)cc(-c2cccc(-c3cnc(N)nc3)c2)n1 [Example 70, 5-{3-[6-Methyl-4-(4-trifluoromethyl-phenyl)-pyridin-2-yl]-phenyl}-pyrimidin-2-ylamine]",44,215 to 217 °C
"Cc1cc(-c2ccc(C(F)(F)F)cc2)cc(-c2cccc(-c3ccc(N)nc3)n2)n1 [Example 71, 6-Methyl-4-(4-trifluoromethyl-phenyl)-[2,2′;6′,3″]terpyridin-6″-ylamine]",1,208 to 211 °C
"Nc1ccc(-c2cc(-c3cc(C(F)(F)F)cc(-c4ccc(C(F)(F)F)cc4)n3)ccn2)cn1 [Example 74, 4-Trifluoromethyl-6-(4-trifluoromethyl-phenyl)-[2,4′;2′,3″]terpyridin-6″-ylamine]",10,194 to 196 °C
"CCOc1cc(-c2cc(C(F)(F)F)nc(-c3nc(-c4ccc(N)nc4)no3)n2)ccc1C(F)(F)F [Example 90, 5-{5-[4-(3-Ethoxy-4-trifluoromethyl-phenyl)-6-trifluoromethyl-pyrimidin-2-yl]-[1,2,4]oxadiazol-3-yl}-pyridin-2-ylamine]",55,216 °C
"OCc1ccc(-c2cccc(-c3nc(-c4ccc(C(F)(F)F)cc4)cc(C(F)(F)F)n3)c2)cc1 [Example 114, {3′-[4-Trifluoromethyl-6-(4-trifluoromethyl-phenyl)-pyrimidin-2-yl]-biphenyl-4-yl}-methanol]",6,171 °C

# More lines, in order of falling Ki (rat mGlu2 receptor), values ahead:
Ki (rat mGlu2 receptor) [nM],melting point,Compound
140,159 °C,"Cc1cc(-c2cccc(-c3nc(-c4ccc(C(F)(F)F)cc4)cc(C(F)(F)F)n3)c2)cc(C)n1 [Example 42, 2-[3-(2,6-Dimethyl-pyridin-4-yl)-phenyl]-4-trifluoromethyl-6-(4-trifluoromethyl-phenyl)-pyrimidine]"
60,233 to 235 °C,"Nc1ccc(-c2cn(-c3cc(-c4ccc(C(F)(F)F)cc4)cc(C4CC4)n3)cn2)cn1 [Example 54, 5-{1-[6-Cyclopropyl-4-(4-trifluoromethyl-phenyl)-pyridin-2-yl]-1H-imidazol-4-yl}-pyridin-2-ylamine]"
56,219 to 222 °C,"Cc1cc(-c2ccc(C(F)(F)F)cc2)cc(-c2cccc(-c3cnc(N)nc3)n2)n1 [Example 72, 5-[6′-Methyl-4′-(4-trifluoromethyl-phenyl)-[2,2′]bipyridinyl-6-yl]-pyrimidin-2-ylamine]"
47,200.5 °C,"FC(F)(F)c1ccc(-c2cc(C(F)(F)F)nc(-n3cnc(-c4cccnc4)c3)n2)cc1 [Example 5, 2-(4-Pyridin-3-yl-imidazol-1-yl)-4-trifluoromethyl-6-(4-trifluoromethyl-phenyl)-pyrimidine]"
47,162 °C,"FC(F)(F)c1cc(-c2ccc(Cl)cc2)nc(-c2cccc(-c3cccnc3)c2)n1 [Example 34, 4-(4-Chloro-phenyl)-2-(3-pyridin-3-yl-phenyl)-6-trifluoromethyl-pyrimidine]"
32,170 to 172 °C,"Nc1ccc(-c2cccc(-c3cc(C(F)(F)F)cc(-c4ccc(C(F)(F)F)cc4)n3)c2)cn1 [Example 60, 5-{3-[4-Trifluoromethyl-6-(4-trifluoromethyl-phenyl)-pyridin-2-yl]-phenyl}-pyridin-2-ylamine]"
29,100 to 104 °C,"FC(F)(F)c1ccc(-c2cc(-c3cccc(-c4cccnc4)c3)nc(C3CC3)c2)cc1 [Example 63, 2-Cyclopropyl-6-(3-pyridin-3-yl-phenyl)-4-(4-trifluoromethyl-phenyl)-pyridine]"
25,205 °C,"NS(=O)(=O)c1cccc(-c2nc(-c3nc(-c4ccc(C(F)(F)F)cc4)cc(C(F)(F)F)n3)no2)c1 [Example 10, 3-{3-[4-Trifluoromethyl-6-(4-trifluoromethyl-phenyl)-pyrimidin-2-yl]-[1,2,4]oxadiazol-5-yl}-benzenesulfonamide]"
19,215 to 227 °C,"Cc1cc(-c2ccc(C(F)(F)F)cc2)cc(-c2cccc(-c3ccc(S(N)(=O)=O)cc3)n2)n1 [Example 73, 4-[6′-Methyl-4′-(4-trifluoromethyl-phenyl)-[2,2′]bipyridinyl-6-yl]-benzenesulfonamide]"
17,194 °C,"FC(F)(F)c1ccc(-c2cc(C(F)(F)F)nc(-c3cccc(-c4cccnc4)c3)n2)cc1 [Example 33, 2-(3-Pyridin-3-yl-phenyl)-4-trifluoromethyl-6-(4-trifluoromethyl-phenyl)-pyrimidine]"
13,89 to 106 °C,"Cc1cc(-c2ccc(C(F)(F)F)cc2)cc(-c2cccc(-c3cccnc3)c2)n1 [Example 61, 2-Methyl-6-(3-pyridin-3-yl-phenyl)-4-(4-trifluoromethyl-phenyl)-pyridine]"
